The target of one test is T1, human CRF2α receptor (Homo sapiens, UniProt Q13324).
T1 construct: expressed in transfected cells; host or cells: TeloHEAC
T1 sequence (Q13324 1-411): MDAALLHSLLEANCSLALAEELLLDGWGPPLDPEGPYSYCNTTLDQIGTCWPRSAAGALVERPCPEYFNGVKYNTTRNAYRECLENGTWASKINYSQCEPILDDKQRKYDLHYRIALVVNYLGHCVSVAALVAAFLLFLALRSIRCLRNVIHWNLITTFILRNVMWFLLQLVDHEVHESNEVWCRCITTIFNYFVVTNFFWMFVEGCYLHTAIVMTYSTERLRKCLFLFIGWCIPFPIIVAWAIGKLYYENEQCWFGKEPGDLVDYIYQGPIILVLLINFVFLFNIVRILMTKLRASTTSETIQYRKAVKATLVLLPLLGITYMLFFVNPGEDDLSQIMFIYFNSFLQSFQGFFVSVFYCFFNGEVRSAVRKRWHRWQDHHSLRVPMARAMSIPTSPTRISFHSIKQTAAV
In words: cAMP agonism at human CRF2 α receptor in TeloHEAC cells (Example 7). The class given is cell-based. As to conditions: cAMP HTRF, TeloHEAC cells stably expressing human CRF2 α, 0% HSA; read-out: EC50 [nM], 0% HSA. In a few lines: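 Percent activation was referenced to 1000 nM UCN2 (100%), and EC50 values taken as concentrations giving half of maximal response. The read-out was a homogeneous time-resolved fluorescence cAMP kit, fluorescence ratio 665/620 nm. Thawed cells (2000/well) saw compound for 30 min at RT in buffer with 2 mM IBMX and 0%/0.1% HSA.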
In general terms: TR-FRET usually uses a lanthanide donor and a delayed reading to cut background.

The target in a further test is T2, CRF1R receptor (Homo sapiens, UniProt P34998).
T2 construct: host or cells: CHO-K1 clone 2
T2 sequence (P34998 24-415): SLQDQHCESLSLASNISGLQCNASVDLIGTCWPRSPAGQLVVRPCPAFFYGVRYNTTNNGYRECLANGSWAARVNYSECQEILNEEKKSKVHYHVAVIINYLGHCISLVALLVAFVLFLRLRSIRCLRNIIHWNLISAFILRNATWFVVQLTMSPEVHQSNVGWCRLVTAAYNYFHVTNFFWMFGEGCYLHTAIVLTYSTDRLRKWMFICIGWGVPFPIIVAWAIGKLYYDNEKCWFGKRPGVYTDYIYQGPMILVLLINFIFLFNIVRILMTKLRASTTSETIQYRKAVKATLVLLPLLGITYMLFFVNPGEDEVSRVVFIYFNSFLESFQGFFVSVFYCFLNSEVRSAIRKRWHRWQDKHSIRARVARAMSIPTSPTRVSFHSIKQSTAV
In words: cAMP activity at anti-target CRF1R, CRF1R-overexpression CHO cell line (Example 9). In kind it is cell-based. As to conditions: CRF1R-overexpression CHO cell line; for EC50: 0% HSA; for Emax: read-out: Emax (%). As to the method:
Cells were grown in a T175 culture flask placed at 37° C. to near confluence in medium (DMEM/10% FBS) and collected in 2 ml vials in cell culture medium containing 10% DMSO in a concentration of 10-50 million cells/ml. Each vial contained 1.8 ml cells. The vials were slowly frozen to −80° C. in isopropanol and then transferred in liquid nitrogen for storage. Prior to use, frozen cells were thawed quickly at 37° C. and washed (5 min at 900 rpm) with 20 ml cell buffer (1×HBSS; 20 mM HEPES; 0% or 0.1% HSA). Cells were resuspended in assay buffer (cell buffer plus 2 mM IBMX) and adjusted to a cell density of 1 million cells/ml. For measurement, 5 μl cells (final […]) and 5 μL of test compound were added to a 384-well plate, followed by incubation for 30 minutes at room temperature.
The CAMP content of cells was determined using a kit from Cisbio Corp. (cat. no. 62AM4PEC) based on HTRF (Homogenous Time Resolved Fluorescence). […] The percent activity value (E %) was calculated by setting 1000 nM of urocortin 2 (UCN2) as 100%.
A CRF1R-overexpression CHO cell line was used in this study.

Starred links: 1 amine or outer side, 2 acyl side, 3 side chain; linkers in the order of their positions; H or OH if unused. Residues, ends and D or L forms follow the SMILES beside them. Groups on a side chain read outwards from the residue. *: point of attachment. γGlu = O=C(O)[C@H](CCC(=O)[*:2])N[*:1]; Palmitoyl = CCCCCCCCCCCCCCCC(=O)*

As a reminder, the EC50 is the concentration at which the effect is half-maximal. A word on the Emax: it is the maximal effect, on the per cent scale that the assay sets. In the case of `CCCCCCCCCCCCCCCC(=O)N[C@@H](CCC(=O)NCCCC[C@H](NC(=O)[C@H](CC(C)C)NC(=O)CNC(=O)[C@@H](NC(=O)[C@@H]1CCCN1C(=O)[C@@H](NC(=O)[C@H](CC(=O)O)NC(=O)[C@H](CC(C)C)NC(=O)[C@H](CO)NC(=O)[C@H](CC(C)C)NC(=O)[C@@H](NC(=O)[C@@H](N)[C@@H](C)CC)C(C)C)C(C)C)[C@@H](C)CC)C(=O)N[C@@H](CCC(N)=O)C(=O)N[C@@H](CCCCN)C(=O)N[C@@H](CC(C)C)C(=O)N[C@@H](CC(C)C)C(=O)N[C@@H](CCCCN)C(=O)N[C@@H](CCC(N)=O)C(=O)N[C@@H](CCC(N)=O)C(=O)N[C@@H](CCCNC(=N)N)C(=O)N[C@@H](CCC(N)=O)C(=O)N[C@@H](CCCNC(=N)N)C(=O)N[C@@H](CCCCN)C(=O)N[C@@H](CCC(=O)O)C(=O)N[C@@H](CCCNC(=N)N)C(=O)N[C@@H](CCC(N)=O)C(=O)N[C@@H](CCC(N)=O)C(=O)N[C@@H](C)C(=O)N[C@@H](CCC(=O)O)C(=O)N[C@H](C(=O)N[C@@H](CC(N)=O)C(=O)N[C@@H](C)C(=O)N[C@@H](CCCNC(=N)N)C(=O)N[C@H](C(=O)N[C@@H](CC(C)C)C(=O)N[C@@H](C)C(=O)N[C@@H](CCCNC(=N)N)C(=O)N[C@H](C(N)=O)C(C)C)[C@@H](C)CC)[C@@H](C)O)C(=O)O` [compound 5] (H-IVLSLDVPIGLK([γGlu-Palmitoyl])QKLLKQQRQRKERQQAETNARILARV-NH2; N-terminus assumed), the EC50 on human CRF2α receptor was 0.04 nM; at CRF1R receptor, above 1000 nM. In addition, the Emax on CRF1R receptor was found to be 37.4%.
The corresponding values for `CCCCCCCCCCCCCCCC(=O)N[C@@H](CCC(=O)NCCCC[C@H](NC(=O)[C@@H](NC(=O)[C@H](CCCCN)NC(=O)[C@@H](NC(=O)[C@@H]1CCCN1C(=O)[C@@H](NC(=O)[C@H](CC(=O)O)NC(=O)[C@H](CC(C)C)NC(=O)[C@H](CO)NC(=O)[C@H](CC(C)C)NC(=O)[C@@H](NC(=O)[C@@H](N)Cc1ccccc1)[C@@H](C)O)C(C)C)[C@@H](C)O)[C@@H](C)CC)C(=O)N[C@@H](CCC(N)=O)C(=O)N[C@@H](CCCCN)C(=O)N[C@@H](CC(C)C)C(=O)N[C@@H](CC(C)C)C(=O)N[C@@H](CCCCN)C(=O)N[C@@H](CCC(N)=O)C(=O)N[C@@H](CCC(=O)O)C(=O)N[C@@H](CCCCN)C(=O)N[C@@H](CCC(N)=O)C(=O)N[C@@H](CCCNC(=N)N)C(=O)N[C@@H](CCCCN)C(=O)N[C@@H](CCC(N)=O)C(=O)N[C@@H](CCCCN)C(=O)N[C@@H](CCC(N)=O)C(=O)N[C@@H](CCC(N)=O)C(=O)N[C@@H](C)C(=O)N[C@@H](CCCCN)C(=O)N[C@H](C(=O)N[C@@H](CC(N)=O)C(=O)N[C@@H](C)C(=O)N[C@@H](CCCCN)C(=O)N[C@H](C(=O)N[C@@H](CC(C)C)C(=O)N[C@@H](C)C(=O)N[C@@H](CCCNC(=N)N)C(=O)N[C@H](C(N)=O)C(C)C)[C@@H](C)CC)[C@@H](C)O)C(=O)O` [compound 12] (H-FTLSLDVPTKIK([γGlu-Palmitoyl])QKLLKQEKQRKQKQQAKTNAKILARV-NH2) are 0.09 nM, above 1000 nM and 41.8%.
